Experimental data taken from patent publication US8518957B2, “Methanocarba adenosine derivatives, pharmaceutical compositions, and method of reducing intraocular pressure” (The United States of America, as represented by the …, priority 2009, dated 2013).
Where two headings read alike, the source gives them in different places.

Columns and labels:
[1] = biological target: T1, human A1 AR (Homo sapiens, UniProt P30542); test: Radioligand binding at human A1 AR ([3H]NECA, membranes of CHO cells); conditions: for % inhibition, A1: inhibition of radioligand binding at 10 μM, [3H]36, CHO cells
T1 construct: expressed in transfected cells
T1 sequence (P30542 1-326): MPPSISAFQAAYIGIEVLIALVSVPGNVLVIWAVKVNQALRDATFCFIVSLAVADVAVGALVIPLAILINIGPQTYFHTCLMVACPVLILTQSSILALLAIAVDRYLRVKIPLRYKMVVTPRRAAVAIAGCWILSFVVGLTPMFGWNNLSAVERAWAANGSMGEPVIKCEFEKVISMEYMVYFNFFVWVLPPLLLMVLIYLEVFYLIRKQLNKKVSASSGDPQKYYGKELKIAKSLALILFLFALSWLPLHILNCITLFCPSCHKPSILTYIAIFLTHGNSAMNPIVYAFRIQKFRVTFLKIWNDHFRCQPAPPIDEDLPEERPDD
Procedure, shortened: (§1)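 Membranes from CHO (hA1, hA3) or HEK-293 (hA2A) cells were pretreated with adenosine deaminase and incubated 60 min at 25° C in pH 7.5 Tris/10 mM MgCl2. Radioligands were A1 [3H]NECA 3.5 nM, A2A [3H]CGS21680 10 nM and A3 [125I]I-AB-MECA 0.34 nM. Bound ligand was filtered and Ki derived.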

[2] = biological target: T2, hA2AAR (Homo sapiens, UniProt P29274); test: Radioligand binding at human A2A AR ([3H]CGS21680, membranes of HEK-293 cells); conditions: for Ki / % inhibition, A2A: [3H]37, HEK293 cells; for Ki: read-out: Affinity (Ki, nM), A2A; for % inhibition, A2A: inhibition of radioligand binding at 10 μM
T2 construct: expressed in transfected cells
Procedure, shortened: as §1

[3] = biological target: T1, human A1 AR; conditions: at 10 μM; model compounds; values from Tosh et al. and Melman et al.; cited from earlier work
[4] = biological target: T3, human A3AR (Homo sapiens, UniProt P0DMS8); conditions: concentration 10 μM; values from Tosh et al.; cited from earlier work
T3 construct: expressed in transfected cells
T3 sequence (P0DMS8 1-318): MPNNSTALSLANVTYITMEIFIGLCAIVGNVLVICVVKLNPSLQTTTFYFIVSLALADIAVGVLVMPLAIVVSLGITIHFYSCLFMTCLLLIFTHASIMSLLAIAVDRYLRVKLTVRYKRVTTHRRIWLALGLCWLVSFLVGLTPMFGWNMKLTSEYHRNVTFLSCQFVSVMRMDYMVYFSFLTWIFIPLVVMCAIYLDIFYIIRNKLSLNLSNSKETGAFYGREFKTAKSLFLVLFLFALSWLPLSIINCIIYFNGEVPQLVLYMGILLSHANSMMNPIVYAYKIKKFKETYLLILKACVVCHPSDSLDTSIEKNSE

T2 sequence (P29274 whole entry): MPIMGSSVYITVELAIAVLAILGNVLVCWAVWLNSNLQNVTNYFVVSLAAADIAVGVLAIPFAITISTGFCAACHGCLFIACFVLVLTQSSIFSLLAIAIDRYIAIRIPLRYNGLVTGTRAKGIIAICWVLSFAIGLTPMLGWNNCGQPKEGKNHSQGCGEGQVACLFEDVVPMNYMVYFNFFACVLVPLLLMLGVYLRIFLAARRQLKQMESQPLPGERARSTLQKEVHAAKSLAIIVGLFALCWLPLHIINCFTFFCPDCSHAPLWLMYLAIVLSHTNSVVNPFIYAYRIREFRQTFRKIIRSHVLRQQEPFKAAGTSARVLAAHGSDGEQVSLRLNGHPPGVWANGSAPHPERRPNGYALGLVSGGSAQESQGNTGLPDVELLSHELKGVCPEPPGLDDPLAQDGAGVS

Compound | inhibition at 10 µM [1] | Ki [2] | inhibition at 10 µM [2] | also measured
CNC(=O)[C@@]12C[C@@H]1[C@@H](n1cnc3c(NCc4cccc(Cl)c4)nc(C#CCCCCc4cn(CCCCN)nn4)nc31)[C@H](O)[C@@H]2O [Compound 16, (1S,2R,3S,4R,5S)-6-(3-Chlorobenzylamino)-(2-(6-(1-(4-aminobutyl)-1H-1,2,3-triazol-4-yl)hex-1-ynyl)-9H-purin-9-yl)-2′,3′-dihydroxybicyclo[3.1.0]hexane-1′-carboxylic acid N-methylamide] | 13% | 1630 ± 350 nM |  | 
CNC(=O)[C@@]12C[C@@H]1[C@@H](n1cnc3c(NCc4cccc(Cl)c4)nc(C#CCCCCc4cn(-c5ccc(C(=O)O)cc5)nn4)nc31)[C@H](O)[C@@H]2O [Compound 13, (1S,2R,3S,4R,5S)-4′-(6-(3-Chlorobenzylamino)-2-(6-(1-(4-carboxyl-phenyl)-1H-1,2,3-triazol-4-yl)hex-1-ynyl)-9H-purin-9-yl)-2′,3′-dihydroxybicyclo[3.1.0]hexane-1′-carboxylic acid N-methylamide] | 0% |  | 40% | 
C#CCCCCC#Cc1nc(NCc2cccc(Cl)c2)c2ncn(C3C(O)C(O)C4(C(=O)NC)CC34)c2n1 (stereo not drawn) [Compound 9, (1′S, 2′R, 3′S, 4′S, 5′S)-4′-[6-(3-Chlorobenzylamino)-2-(1,7-octadiynyl)-9H-purin-9-yl]-2′,3′-dihydroxybicyclo[3.1.0]hexane-1′-carboxylic acid N-methylamide] |  | 7040 ± 1430 nM |  | % inhibition, A1 [3]: (31%
CNC(=O)[C@@]12C[C@@H]1[C@@H](n1cnc3c(NCc4cccc(Cl)c4)nc(C#CCCCCc4cn(-c5ccc(N)cc5)nn4)nc31)[C@H](O)[C@@H]2O [Compound 12, (1S,2R,3S,4R,5S)-4′-(6-(3-Chlorobenzylamino)-2-(6-(1-(4-amino-phenyl)-1H-1,2,3-triazol-4-yl)hex-1-ynyl)-9H-purin-9-yl)-2′,3′-dihydroxybicyclo[3.1.0]hexane-1′-carboxylic acid N-methylamide] | 3% | 5490 ± 1150 nM |  | 
CNC(=O)[C@@]12C[C@@H]1[C@@H](n1cnc3c(NCc4cccc(Cl)c4)nc(-c4nnn(-c5ccc(N=C=S)cc5)c4CCCCc4cn(-c5ccc(N=C=S)cc5)nn4)nc31)[C@H](O)[C@@H]2O [Compound 25, (1S,2R,3S,4R,5S)-6-(3-Chlorobenzylamino)-(2-(1,6-bis(4-isothiocyante-phenyl)-1H-bis(1,2,3-triazol-4-yl)hex-1-ynyl)-9H-purin-9-yl)-2′,3′-dihydroxybicyclo[3.1.0]hexane-1′-carboxylic acid N-methylamide] | 4% |  | 40% | 
CNC(=O)[C@@]12C[C@@H]1[C@@H](n1cnc3c(NCc4cccc(Cl)c4)nc(C#CCCCCc4cn(-c5ccc(N=C=S)cc5)nn4)nc31)[C@H](O)[C@@H]2O [Compound 26, (1S,2R,3S,4R,5S)-6-(3-Chlorobenzylamino)-(2-(6-(1-(4-isothiocyante-phenyl)-1H-1,2,3-triazol-4-yl)hex-1-ynyl)-9H-purin-9-yl)-2′,3′-dihydroxybicyclo[3.1.0]hexane-1′-carboxylic acid N-methylamide] | 2% |  | 28% | 
CNC(=O)[C@@]12C[C@@H]1[C@@H](n1cnc3c(NCc4cccc(Cl)c4)nc(C#CCCCCc4cn(-c5ccc(F)c([N+](=O)[O-])c5)nn4)nc31)[C@H](O)[C@@H]2O [Compound 11] | 8% | 6730 ± 280 nM |  | 
CNC(=O)[C@@]12C[C@@H]1[C@@H](n1cnc3c(NCc4cccc(Cl)c4)nc(C#CCCCCc4cn(CCCCCCC(=O)NCCCCCCNC(=O)CCCC[C@@H]5SC[C@@H]6NC(=O)N[C@@H]65)nn4)nc31)[C@H](O)[C@@H]2O [Compound 21] |  |  |  | % inhibition, A1 [1]: (0 ± 0%); % inhibition, A2A [2]: (19 ± 5%)
CNC(=O)[C@@]12C[C@@H]1[C@@H](n1cnc3c(NCc4cccc(Cl)c4)nc(C#CCCCCc4cn(-c5ccc(C(=O)CBr)cc5)nn4)nc31)[C@H](O)[C@@H]2O [Compound 14, (1S,2R,3S,4R,5S)-6-(3-Chlorobenzylamino)-4-(2-(6-(4-(2-bromoacetyl)phenyl)-1H-1,2,3-triazol-4-yphex-1-ynyl)-9H-purin-9-yl)-2′,3′-dihydroxybicyclo[3.1.0]hexane-1′-carboxylic acid N-methylamide] | 12% | 5740 ± 730 nM |  | 
CNC(=O)[C@@]12C[C@@H]1[C@@H](n1cnc3c(NCc4cccc(Cl)c4)nc(C#CCCCCc4cn(CCNC(C)=O)nn4)nc31)[C@H](O)[C@@H]2O [Compound 15, (1S,2R,3S,4R,5S)-6-(3-Chlorobenzylamino)-(2-(6-(1-(4-acetamidoethyl)-1H-1,2,3-triazol-4-yl)hex-1-ynyl)-9H-purin-9-yl)-2′,3′-dihydroxybicyclo[3.1.0]hexane-1′-carboxylic acid N-methylamide] | 12% | 2440 ± 320 nM |  | % Inhibition of cAMP accumulation at the hA3AR [4]: 93.6 ± 17.7%
CNC(=O)[C@@]12C[C@@H]1[C@@H](n1cnc3c(NCc4cccc(Cl)c4)nc(C#CCCCCc4cn(CCCCCCNC(=O)c5ccc(-c6c7ccc(=N)c(S(=O)(=O)O)c-7oc7c(S(=O)(=O)O)c(N)ccc67)c(C(=O)O)c5)nn4)nc31)[C@H](O)[C@@H]2O [Compound 23] |  |  |  | % inhibition, A1 [1]: (0 ± 0%); % inhibition, A2A [2]: (23 ± 5%)

Second part, led by results:

inhibition at 10 µM [1] | Ki [2] | inhibition at 10 µM [2] | Compound | also measured
17% | 7240 ± 510 nM |  | CNC(=O)[C@@]12C[C@@H]1[C@@H](n1cnc3c(NCc4cccc(Cl)c4)nc(C#CCCCCc4cn(CCCCNC(C)=O)nn4)nc31)[C@H](O)[C@@H]2O [Compound 17, (1S,2R,3S,4R,5S)-6-(3-Chlorobenzylamino)-(2-(6-(1-(4-acetamidobutyl)-1H-1,2,3-triazol-4-yl)hex-1-ynyl)-9H-purin-9-yl)-2′,3′-dihydroxybicyclo[3.1.0]hexane-1′-carboxylic acid N-methylamide] | 
0% |  | 27% | CNC(=O)[C@@]12C[C@@H]1[C@@H](n1cnc3c(NCc4cccc(Cl)c4)nc(C#CCCCCc4cn(CCCCCCNC(=O)CCCC[C@@H]5SC[C@@H]6NC(=O)N[C@@H]65)nn4)nc31)[C@H](O)[C@@H]2O [Compound 20, (1S,2R,3S,4R,5S)-6-(3-Chlorobenzylamino)-(2-(6-(1-(6-(5-(3aS,4S,6aR)-oxohexahydro-1H-thieno[3,4-d]imidazol-4-yl)pentanamido)hexyl-1H-1,2,3-triazol-4-yl)hex-1-ynyl)-9H-purin-9-yl)-2′,3′-dihydroxybicyclo[3.1.0]hexane-1′-carboxylic acid N-methylamide] | 
15% |  | 49% | CNC(=O)[C@@]12C[C@@H]1[C@@H](n1cnc3c(NCc4cccc(Cl)c4)nc(C#CCCCCc4cn(Cc5ccc(-n6sccc6=O)cc5)nn4)nc31)[C@H](O)[C@@H]2O [Compound 19, (1S,2R,3S,4R,5S)-6-(3-Chlorobenzylamino)-(2-(1-(4-3-oxoisothiazol-2(3H)-yl)benzyl-1H-1,2,3-triazol-4-yphex-1-ynyl)-9H-purin-9-yl)-2′,3′-dihydroxybicyclo[3.1.0]hexane-β-carboxylic acid N-methylamide] | 
22% | 3280 ± 700 nM |  | CNC(=O)[C@@]12C[C@@H]1[C@@H](n1cnc3c(NCc4cccc(Cl)c4)nc(C#CCCCCc4cn(C56CC7CC(CC(C7)C5)C6)nn4)nc31)[C@H](O)[C@@H]2O [Compound 18, (1S,2R,3S,4R,5S)-6-(3-Chlorobenzylamino)-(2-(6-(1-(adamantyl)-1H-1,2,3-triazol-4-yl)hex-1-ynyl)-9H-purin-9-yl)-2′,3′-dihydroxybicyclo[3.1.0]hexane-1′-carboxylic acid N-methylamide] | 
